The source of these data is US20250368666A1, “INDAZOLE COMPOUNDS” (TYRA BIOSCIENCES, INC., priority 2022, published 2025).

Where only a bound is given, the exact number is not on record here.

Common to all, as to assay: Kinase binding assay (kinase-tagged T7 phage, affinity beads, qPCR), Kd
For orientation: Real-time PCR tracks product formation cycle by cycle.

The target of one test is T1, FGFR1 (Homo sapiens, UniProt P11362).
T1 construct: made in house; host or cells: E. coli (BL21-derived), T7 phage
As to conditions: read-out: FGFR1 (Kd nM). In a few lines: (§1)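 First, phage lysates carrying tagged kinase are made in E. coli at 32° C. Next, they are combined with blocked biotin-ligand streptavidin beads and compound at 0.9% final DMSO. Finally, eluted kinase is measured by qPCR and Kd is fitted with the Hill equation.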

A further test deals with T2, FGFR2 (Homo sapiens, UniProt P21802).
T2 construct: made in house; host or cells: E. coli (BL21-derived), T7 phage
As to conditions: read-out: FGFR2 (Kd nM). The essentials:
as §1

In another test the target is T3, FGFR3 (Homo sapiens, UniProt P22607).
T3 construct: made in house; host or cells: E. coli (BL21-derived), T7 phage
As to conditions: read-out: FGFR3 (Kd nM). The essentials: as §1

For another test, the target named is T4, FGFR3 (V555M) (Homo sapiens, UniProt P22607, V555M).
T4 construct: made in house; host or cells: E. coli (BL21-derived), T7 phage
As to conditions: V555M mutant; read-out: FGFR3 (V555M) (Kd nM). The essentials:
as §1

The target of a further test is T5, FGFR4 (Homo sapiens, UniProt P22455).
T5 construct: made in house; host or cells: E. coli (BL21-derived), T7 phage
As to conditions: read-out: FGFR4 (Kd nM). In a few lines:
as §1

T1 sequence (P11362 22-822): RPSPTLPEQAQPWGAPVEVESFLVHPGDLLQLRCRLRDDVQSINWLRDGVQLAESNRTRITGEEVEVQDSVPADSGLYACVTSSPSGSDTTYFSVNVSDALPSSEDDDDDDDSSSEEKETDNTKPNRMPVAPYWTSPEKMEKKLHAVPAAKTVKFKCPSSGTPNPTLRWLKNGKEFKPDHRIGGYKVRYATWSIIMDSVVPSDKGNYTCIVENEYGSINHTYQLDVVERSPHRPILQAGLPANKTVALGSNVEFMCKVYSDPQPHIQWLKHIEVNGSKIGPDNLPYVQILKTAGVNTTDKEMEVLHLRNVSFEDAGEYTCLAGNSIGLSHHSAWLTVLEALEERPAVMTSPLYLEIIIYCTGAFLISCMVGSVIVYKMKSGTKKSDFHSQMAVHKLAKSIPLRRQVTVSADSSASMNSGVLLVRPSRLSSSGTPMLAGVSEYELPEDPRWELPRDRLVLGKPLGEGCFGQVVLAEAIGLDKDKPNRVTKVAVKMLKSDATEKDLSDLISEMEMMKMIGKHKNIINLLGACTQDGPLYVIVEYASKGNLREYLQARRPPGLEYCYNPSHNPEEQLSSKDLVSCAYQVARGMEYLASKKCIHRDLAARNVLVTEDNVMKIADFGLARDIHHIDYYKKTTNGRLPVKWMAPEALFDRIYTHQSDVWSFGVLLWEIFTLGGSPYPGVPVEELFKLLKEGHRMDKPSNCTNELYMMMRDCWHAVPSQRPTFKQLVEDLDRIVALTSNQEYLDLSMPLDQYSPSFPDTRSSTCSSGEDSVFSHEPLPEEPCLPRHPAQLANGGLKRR
T2 sequence (P21802 22-821): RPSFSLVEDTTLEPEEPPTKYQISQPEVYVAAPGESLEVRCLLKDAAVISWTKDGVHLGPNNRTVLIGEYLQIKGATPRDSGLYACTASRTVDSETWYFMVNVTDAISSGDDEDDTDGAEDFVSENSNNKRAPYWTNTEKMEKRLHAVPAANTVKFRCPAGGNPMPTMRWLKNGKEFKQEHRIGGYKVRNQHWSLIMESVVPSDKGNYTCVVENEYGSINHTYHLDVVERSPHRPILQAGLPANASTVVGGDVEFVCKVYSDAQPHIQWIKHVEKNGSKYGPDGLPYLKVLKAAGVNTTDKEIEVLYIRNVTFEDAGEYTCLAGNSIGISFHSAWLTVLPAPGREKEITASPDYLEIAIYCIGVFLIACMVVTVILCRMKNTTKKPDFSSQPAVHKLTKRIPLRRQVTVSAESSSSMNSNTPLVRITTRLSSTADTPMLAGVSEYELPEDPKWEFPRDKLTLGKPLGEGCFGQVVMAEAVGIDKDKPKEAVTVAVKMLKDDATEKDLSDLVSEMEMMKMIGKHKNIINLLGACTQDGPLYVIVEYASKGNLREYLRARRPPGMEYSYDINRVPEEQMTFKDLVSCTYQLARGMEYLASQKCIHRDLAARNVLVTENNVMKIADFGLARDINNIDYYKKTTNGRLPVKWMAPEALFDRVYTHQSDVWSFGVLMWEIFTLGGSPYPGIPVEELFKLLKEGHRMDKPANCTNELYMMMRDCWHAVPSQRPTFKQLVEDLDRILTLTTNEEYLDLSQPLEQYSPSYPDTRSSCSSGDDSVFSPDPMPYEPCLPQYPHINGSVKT
T4 sequence (P22607 23-806 V555M): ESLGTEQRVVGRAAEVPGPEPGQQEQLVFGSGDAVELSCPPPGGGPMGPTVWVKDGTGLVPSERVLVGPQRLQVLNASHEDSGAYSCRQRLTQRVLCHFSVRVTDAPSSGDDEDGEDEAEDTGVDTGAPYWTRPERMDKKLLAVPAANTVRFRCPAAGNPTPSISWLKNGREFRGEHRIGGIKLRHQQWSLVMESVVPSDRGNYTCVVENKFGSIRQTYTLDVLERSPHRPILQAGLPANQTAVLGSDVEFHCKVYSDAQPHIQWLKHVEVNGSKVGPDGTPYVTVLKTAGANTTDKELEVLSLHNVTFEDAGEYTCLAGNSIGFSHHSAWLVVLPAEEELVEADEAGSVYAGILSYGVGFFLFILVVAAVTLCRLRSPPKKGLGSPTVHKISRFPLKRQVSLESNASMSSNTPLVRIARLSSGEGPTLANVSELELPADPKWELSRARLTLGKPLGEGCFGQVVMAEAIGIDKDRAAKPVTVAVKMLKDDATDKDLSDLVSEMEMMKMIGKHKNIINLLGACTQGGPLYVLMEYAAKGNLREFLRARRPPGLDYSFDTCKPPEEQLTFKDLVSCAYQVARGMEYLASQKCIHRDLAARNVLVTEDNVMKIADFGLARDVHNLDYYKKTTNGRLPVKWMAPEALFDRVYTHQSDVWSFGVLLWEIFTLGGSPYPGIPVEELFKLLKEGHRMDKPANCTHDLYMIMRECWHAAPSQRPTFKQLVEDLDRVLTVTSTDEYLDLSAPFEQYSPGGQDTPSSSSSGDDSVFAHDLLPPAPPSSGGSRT
T5 sequence (P22455 22-802): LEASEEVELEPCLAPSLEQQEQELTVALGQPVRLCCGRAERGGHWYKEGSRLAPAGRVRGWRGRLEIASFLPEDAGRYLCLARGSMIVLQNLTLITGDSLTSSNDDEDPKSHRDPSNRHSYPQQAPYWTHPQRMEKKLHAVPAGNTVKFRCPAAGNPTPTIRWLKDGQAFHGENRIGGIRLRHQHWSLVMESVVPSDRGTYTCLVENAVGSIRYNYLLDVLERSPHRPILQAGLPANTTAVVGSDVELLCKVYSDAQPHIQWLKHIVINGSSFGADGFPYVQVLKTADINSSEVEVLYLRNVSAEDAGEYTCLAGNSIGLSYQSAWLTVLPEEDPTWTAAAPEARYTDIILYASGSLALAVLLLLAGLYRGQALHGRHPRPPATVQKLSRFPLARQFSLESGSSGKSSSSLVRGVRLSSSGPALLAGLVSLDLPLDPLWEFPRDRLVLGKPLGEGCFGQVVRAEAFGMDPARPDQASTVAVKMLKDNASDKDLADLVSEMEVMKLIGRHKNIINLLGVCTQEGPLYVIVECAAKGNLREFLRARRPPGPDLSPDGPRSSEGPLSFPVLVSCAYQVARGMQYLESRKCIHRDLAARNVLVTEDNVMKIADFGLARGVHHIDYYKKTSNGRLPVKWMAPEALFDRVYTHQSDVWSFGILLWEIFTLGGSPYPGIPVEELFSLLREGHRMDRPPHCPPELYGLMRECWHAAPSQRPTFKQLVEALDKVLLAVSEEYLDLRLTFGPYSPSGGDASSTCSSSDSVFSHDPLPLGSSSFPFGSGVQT
T3 sequence (P22607 23-806): as the sequence (P22607 23-806 V555M) above, with M533V counted along it

For the molecule `CC(C)NC1(C)CN(c2ccc(-c3n[nH]c4ccc(O[C@H](C)c5c(Cl)cncc5Cl)c(F)c34)cn2)C1` [Example 173, (R)-1-(5-(5-(1-(3,5-dichloropyridin-4-yl)ethoxy)-4-fluoro-1H-indazol-3-yl)pyridin-2-yl)-N-isopropyl-3-methylazetidin-3-amine], the Kd (usually the free concentration of one partner at which half of the binding sites on the other are occupied at equilibrium, for simple one-to-one binding) at FGFR1 was in the range of 300 to 1000 nM; at FGFR2, 300 to 1000 nM; on FGFR3, 50 to 300 nM; at FGFR3 (V555M) it was 1 to 50 nM; at FGFR4, 300 to 1000 nM.

Take “3-[6-[3-(cyclobutoxy)- 3-methyl-azetidin-1- yl]-3-pyridy1]-5-[(1R)- 1-(3,5-dichloro-2- methyl-4- pyridyl)ethoxy]-1H- indazole [Example 75]”: the Kd at FGFR1 lay in the range of 300 to 1000 nM; at FGFR2, 50 to 300 nM; at FGFR3 it was 1 to 50 nM; on FGFR3 (V555M), 1 to 50 nM; at FGFR4, 50 to 300 nM.

Consider `C[C@@H](Oc1ccc2[nH]nc(-c3ccc(N4CC(C)(NCC(F)F)C4)nc3)c2c1)c1c(Cl)cncc1Cl` [Example 125, 1-[5-[5-[(1R)-1-(3,5-dichloro-4-pyridyl)ethoxy]-1H-indazol-3-yl]-2-pyridyl]-N-(2,2-difluoroethyl)-3-methyl-azetidin-3-amine], for which the Kd at FGFR1, on FGFR2, on FGFR3, on FGFR3 (V555M) and on FGFR4 was 1 to 50 nM each time.

In the case of `COc1cc2[nH]nc(-c3cnc(N4CC5(CC5)C4)c(C#N)c3)c2cc1O[C@H](C)c1c(Cl)cncc1Cl` [Example 3, (R)-5-(5-(1-(3,5-dichloropyridin-4-yl)ethoxy)-6-methoxy-1H-indazol-3-yl)-2-(5-azaspiro[2.3]hexan-5-yl)nicotinonitrile], the Kd was 50 to 300 nM on FGFR1; 300 to 1000 nM on FGFR2; 1 to 50 nM on FGFR3; 1 to 50 nM at FGFR3 (V555M); 1 to 50 nM at FGFR4.

Turning to `C[C@@H](Oc1ccc2[nH]nc(-c3cnc(N4CC(C)(CP(C)(C)=O)C4)c(F)c3)c2c1)c1c(Cl)cncc1Cl` [Example 121, (R)-((1-(5-(5-(1-(3,5-dichloropyridin-4-yl)ethoxy)-1H-indazol-3-yl)-3-fluoropyridin-2-yl)-3-methylazetidin-3-yl)methyl)dimethylphos-phine oxide], the Kd on FGFR1, on FGFR2, on FGFR3, on FGFR3 (V555M) and at FGFR4 was 1 to 50 nM throughout.

On to `C[C@@H](Oc1cc2c(-c3cnc(N4CC(C)(N(C)C)C4)c(F)c3)n[nH]c2cc1F)c1c(Cl)cncc1Cl` [Example 130, 1-[5-[5-[(1R)-1-(3,5-dichloro-4-pyridyl)ethoxy]-6-fluoro-1H-indazol-3-yl]-3-fluoro-2-pyridyl]-N,N,3-trimethyl-azetidin-3-amine], for which the Kd on FGFR1, on FGFR2, on FGFR3, on FGFR3 (V555M) and at FGFR4 was 1 to 50 nM each time.

On to `C[C@@H](Oc1ccc2[nH]nc(-c3cnc(N4CC(C)(CP(C)(C)=O)C4)c(C#N)c3)c2c1F)c1c(Cl)cncc1Cl` [Example 323, (R)-5-(5-(1-(3,5-dichloropyridin-4-yl)ethoxy)-4-fluoro-1H-indazol-3-yl)-2-(3-((dimethyl-phosphoryl)methyl)-3-methylazetidin-1-yl)nicotinonitrile], for which the Kd at FGFR1 was more than 1000 nM; on FGFR2, more than 1000 nM; at FGFR3, more than 1000 nM; at FGFR3 (V555M), 300 to 1000 nM; on FGFR4, 1 to 50 nM.

Take `COCCN(C)C1(C)CN(c2ncc(-c3n[nH]c4ccc(O[C@H](C)c5c(Cl)cncc5Cl)cc34)cn2)C1` [Example 79, (R)-1-(5-(5-(1-(3,5-dichloropyridin-4-yl)ethoxy)-1H-indazol-3-yl)pyrimidin-2-yl)-N-(2-methoxyethyl)-N,3-dimethylazetidin-3-amine]: the dissociation constant (Kd) at FGFR1, on FGFR2, on FGFR3, at FGFR3 (V555M) and on FGFR4 was 1 to 50 nM each time.

As to `C[C@@H](Oc1cc2c(-c3ccc(N4CC(C)(CN5CCCC5)C4)nc3)n[nH]c2cc1F)c1c(Cl)cncc1Cl` [Example 188, (R)-5-(1-(3,5-dichloropyridin-4-yl)ethoxy)-6-fluoro-3-(6-(3-methyl-3-(pyrrolidin-1-ylmethyl)azetidin-1-yl)pyridin-3-yl)-1H-indazole], the Kd on FGFR1, at FGFR2, on FGFR3, on FGFR3 (V555M) and on FGFR4 was 1 to 50 nM throughout.

As for `CCNC1(C)CN(c2ncc(-c3n[nH]c4ccc(O[C@H](C)c5c(Cl)cnc(C)c5Cl)cc34)cc2C#N)C1` [Example 40, 5-[5-[(1R)-1-(3,5-dichloro-2-methyl-4-pyridyl)ethoxy]-1H-indazol-3-yl]-2-[3-(ethylamino)-3-methyl-azetidin-1-yl]pyridine-3-carbonitrile], the equilibrium dissociation constant (Kd) on FGFR1 lay in the range of 50 to 300 nM; at FGFR2, 50 to 300 nM; on FGFR3 it was 1 to 50 nM; at FGFR3 (V555M), 1 to 50 nM; on FGFR4 it was 1 to 50 nM.

For `COc1cc2[nH]nc(-c3ccc(N4CC(C)(CP(C)(C)=O)C4)nc3)c2cc1O[C@H](C)c1c(Cl)cncc1Cl` [Example 180, (R)-((1-(5-(5-(1-(3,5-dichloro-pyridin-4-yl)ethoxy)-6-meth-oxy-1H-inda-zol-3-yl)pyridin-2-yl)-3-methylazetidin-3-yl)methyl)dimethyl-phosphine oxide], the Kd at FGFR1, at FGFR2, at FGFR3, at FGFR3 (V555M) and on FGFR4 was 1 to 50 nM throughout.

For `C[C@@H](Oc1ccc2[nH]nc(-c3ccc(N4CC(C)(OCCO)C4)nc3)c2c1)c1c(Cl)cncc1Cl` [Example 92, (R)-2-((1-(5-(5-(1-(3,5-dichloropyridin-4-yl)ethoxy)-1H-indazol-3-yl)pyridin-2-yl)-3-methylazetidin-3-yl)oxy)ethan-1-ol], the Kd at FGFR1, at FGFR2, on FGFR3, on FGFR3 (V555M) and on FGFR4 was 1 to 50 nM throughout.

Turning to `C[C@@H](Oc1ccc2[nH]nc(-c3ccc(N4CC(C)(CNS(C)(=O)=O)C4)nc3)c2c1)c1c(Cl)cncc1Cl` [Example 69, (R)-N-((1-(5-(5-(1-(3,5-dichloropyridin-4-yl)ethoxy)-1H-indazol-3-yl)pyridin-2-yl)-3-methylazetidin-3-yl)methyl)methane-sulfonamide], the dissociation constant Kd on FGFR1, at FGFR2, on FGFR3, at FGFR3 (V555M) and at FGFR4 was 1 to 50 nM throughout.

As to `CC(C)NCC1(C)CN(c2ncc(-c3n[nH]c4ccc(O[C@H](C)c5c(Cl)cncc5Cl)c(F)c34)cc2C#N)C1` [Example 326, (R)-5-(5-(1-(3,5-dichloropyridin-4-yl)ethoxy)-4-fluoro-1H-indazol-3-yl)-2-(3-((isopropylamino)methyl)-3-methylazetidin-1-yl)nicotinonitrile], the equilibrium dissociation constant (Kd) on FGFR1 was more than 1000 nM; at FGFR2, more than 1000 nM; on FGFR3 it was more than 1000 nM; at FGFR3 (V555M), more than 1000 nM; at FGFR4, 1 to 50 nM.

For the molecule `C[C@@H](Oc1cc2c(-c3cnc(N4CC(C)(CP(C)(C)=O)C4)c(F)c3)n[nH]c2cc1F)c1c(Cl)cncc1Cl` [Example 193, (R)-((1-(5-(5-(1-(3,5-dichloro-pyridin-4-yl)ethoxy)-6-fluoro-1H-indazol-3-yl)-3-fluoropyridin-2-yl)-3-methylazetidin-3-yl)methyl)dimethyl-phosphine oxide], the dissociation constant (Kd) on FGFR1, at FGFR2, at FGFR3, on FGFR3 (V555M) and at FGFR4 was 1 to 50 nM each time.

In the case of `CC(C)NCC1(C)CN(c2ccc(-c3n[nH]c4ccc(O[C@H](C)c5c(Cl)cncc5Cl)c(F)c34)cn2)C1` [Example 190, (R)-N-((1-(5-(5-(1-(3,5-dichloro-pyridin-4-yl)ethoxy)-4-fluoro-1H-indazol-3-yl)pyridin-2-yl)-3-methylazetidin-3-yl)methyl)propan-2-amine], the Kd lay in the range of 300 to 1000 nM at FGFR1; 300 to 1000 nM on FGFR2; 1 to 50 nM at FGFR3; 1 to 50 nM at FGFR3 (V555M); 300 to 1000 nM at FGFR4.

Turning to `C[C@@H](Oc1cc2c(-c3cnc(N4CC(C)(NCCO)C4)c(F)c3)n[nH]c2cc1F)c1c(Cl)cncc1Cl` [Example 165], the Kd on FGFR1, on FGFR2, at FGFR3, on FGFR3 (V555M) and on FGFR4 was 1 to 50 nM each time.

As to `CC(C)NC1(C)CN(c2ncc(-c3n[nH]c4ccc(O[C@H](C)c5c(Cl)cncc5Cl)cc34)cn2)C1` [Example 236, (R)-1-(5-(5-(1-(3,5-dichloropyridin-4-yl)ethoxy)-1H-indazol-3-yl)pyrimidin-2-yl)-N-isopropyl-3-methylazetidin-3-amine], the Kd on FGFR1, on FGFR2, on FGFR3, at FGFR3 (V555M) and on FGFR4 was 1 to 50 nM throughout.

As for `C[C@@H](Oc1ccc2[nH]nc(-c3ccc(N4CC(C)(N5CC(C)(O)C5)C4)nc3)c2c1)c1c(Cl)cncc1Cl` [Example 157, 1-[1-[5-[5-[(1R)-1-(3,5-dichloro-4-pyridyl)ethoxy]-1H-indazol-3-yl]-2-pyridyl]-3-methyl-azetidin-3-yl]-3-methyl-azetidin-3-ol], the Kd at FGFR1, on FGFR2, on FGFR3, at FGFR3 (V555M) and at FGFR4 was 1 to 50 nM throughout.
